Test results from ChEMBL document CHEMBL1156188, “Synthesis and SAR of novel 4-morpholinopyrrolopyrimidine derivatives as potent phosphatidylinositol 3-kinase inhibitors” (J Med Chem, 2010).
pIC50: −log10 of the molar value. ≈ marks a conversion by molar mass, not a printed value.

Assays:
PC-3 = assay: Cytotoxicity against human PC3 cells with PTEN mutant after 72 hrs; assay type: functional, cell-based; conditions: PC-3, 72 h
in vitro [1] = conditions: rat, liver microsomes
[2] = Solubility at pH 7.4; assay type: physicochemical; conditions: buffer
MDA-MB-361 = assay: cells; conditions: Homo sapiens, MDA-MB-361, 72 h
[3] = target: Phosphatidylinositol 4,5-bisphosphate 3-kinase catalytic subunit alpha isoform (Homo sapiens, UniProt P42336)
in vitro [4] = conditions: human, liver microsomes
[5] = target: Serine/threonine-protein kinase mTOR (Homo sapiens, UniProt P42345); assay: Inhibition of mTOR by DELFIA
[6] = Solubility at pH 3; assay type: physicochemical; conditions: buffer
[7] = Drug level in human MDA-MB-361 cells xenografted nude mouse at 25 mg/kg, iv after 8 hrs; assay type: ADME, organism-based; set-up: dose 25 mg/kg, route intravenous; conditions: blood, read-out: Drug uptake
in vitro [8] = conditions: mouse, liver microsomes

Phosphatidylinositol 4,5-bisphosphate 3-kinase catalytic subunit alpha isoform, sequence (P42336 whole entry, canonical isoform): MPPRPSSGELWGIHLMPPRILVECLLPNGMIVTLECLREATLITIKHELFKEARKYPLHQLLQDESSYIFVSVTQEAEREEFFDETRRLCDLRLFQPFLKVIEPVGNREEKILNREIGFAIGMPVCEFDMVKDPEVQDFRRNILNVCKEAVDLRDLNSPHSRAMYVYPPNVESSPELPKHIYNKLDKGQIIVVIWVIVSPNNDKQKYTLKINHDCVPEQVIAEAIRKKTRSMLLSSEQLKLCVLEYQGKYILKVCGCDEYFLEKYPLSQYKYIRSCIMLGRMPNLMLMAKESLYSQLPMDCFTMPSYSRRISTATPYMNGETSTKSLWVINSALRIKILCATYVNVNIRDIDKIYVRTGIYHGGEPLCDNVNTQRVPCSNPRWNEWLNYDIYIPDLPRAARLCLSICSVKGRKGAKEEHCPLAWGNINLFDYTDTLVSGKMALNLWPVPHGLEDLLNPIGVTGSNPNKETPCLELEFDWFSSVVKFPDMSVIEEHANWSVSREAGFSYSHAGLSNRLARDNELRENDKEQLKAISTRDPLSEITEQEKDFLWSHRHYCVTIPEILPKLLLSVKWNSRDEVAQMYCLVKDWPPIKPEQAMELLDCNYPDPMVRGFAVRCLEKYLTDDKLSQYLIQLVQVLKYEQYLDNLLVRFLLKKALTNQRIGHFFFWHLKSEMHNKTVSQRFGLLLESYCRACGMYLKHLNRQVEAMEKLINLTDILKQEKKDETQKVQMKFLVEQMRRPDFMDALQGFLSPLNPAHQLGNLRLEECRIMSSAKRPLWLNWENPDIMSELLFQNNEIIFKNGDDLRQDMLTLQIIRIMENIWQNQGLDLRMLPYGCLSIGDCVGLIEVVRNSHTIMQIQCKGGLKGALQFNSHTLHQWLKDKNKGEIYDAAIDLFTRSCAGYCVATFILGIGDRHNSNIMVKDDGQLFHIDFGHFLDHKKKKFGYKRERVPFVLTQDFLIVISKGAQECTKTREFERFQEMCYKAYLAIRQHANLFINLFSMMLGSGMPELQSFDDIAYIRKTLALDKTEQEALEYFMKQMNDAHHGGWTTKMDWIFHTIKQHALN

| SMILES | half-life (in vitro [1]) [min] | solubility [2] [µg/mL] | pIC50 (PC-3) | other results |
| --- | --- | --- | --- | --- |
| O=C(Nc1ccncc1)Nc1ccc(-c2nc(N3CCOCC3)c3cc[nH]c3n2)cc1 | – | – | 6.73 | – |
| OCc1cccc(-c2nc(N3CCOCC3)c3ncn(C4CCN(Cc5ccccc5)CC4)c3n2)c1 | 2 | – | – | – |
| CN1CCN(CCn2ccc3c(N4CCOCC4)nc(-c4ccc(NC(=O)Nc5ccncc5)cc4)nc32)CC1 | 4 | > 100 | 6.02 | – |
| Oc1cccc(-c2nc(N3CCOCC3)c3cc[nH]c3n2)c1 | – | 2 (≈ 6.75 µM) | 6.24 | – |
| CN(C)CCn1ccc2c(N3CCOCC3)nc(-c3ccc(NC(=O)Nc4ccc(F)cc4)cc3)nc21 | – | – | 6.72 | pIC50 [5]: 8.10 |
| Oc1cccc(-c2nc(N3CCOCC3)c3[nH]cc(C4CCN(Cc5ccc(F)cc5)CC4)c3n2)c1 | – | – | 5.78 | – |
| CN(C)CCn1ccc2c(N3CCOCC3)nc(-c3cccc(O)c3)nc21 | – | > 100 | 5.93 | – |
| Oc1cccc(-c2nc(N3CCOCC3)c3[nH]ccc3n2)c1 | – | – | 5.81 | – |
| OCc1cccc(-c2nc(N3CCOCC3)c3[nH]cc(CN4CCCC4)c3n2)c1 | – | – | < 5.50 | – |
| O=C(Nc1ccncc1)Nc1ccc(-c2nc(N3CCOCC3)c3ccn(CCN4CCCCC4)c3n2)cc1 | 4 | 47 (≈ 89.2 µM) | 6.20 | – |
| O=C(Nc1ccncc1)Nc1ccc(-c2nc(N3CCOCC3)c3ccn(CCN4CCCC4)c3n2)cc1 | 4 | 28 (≈ 54.6 µM) | 6.26 | – |
| OCc1cccc(-c2nc(N3CCOCC3)c3[nH]ccc3n2)c1 | – | – | 5.68 | – |
| OCc1cccc(-c2nc(N3CCOCC3)c3cc[nH]c3n2)c1 | – | 38 (≈ 122 µM) | 5.92 | – |
| CN1CCN(C(=O)c2ccc(NC(=O)Nc3ccc(-c4nc(N5CCOCC5)c5ccn(CC(F)(F)F)c5n4)cc3)cc2)CC1 | 27 | – | 7.77 | concentration at 8 h [7]: 1680 ng/mL; pIC50 (MDA-MB-361): 8.17; solubility [6]: > 100 µg/mL; half-life (in vitro [8]): > 30 min; pIC50 [3]: 8.62; half-life (in vitro [4]): > 30 min; pIC50 [5]: 8.77 |
| CN(C)Cc1c[nH]c2c(N3CCOCC3)nc(-c3cccc(CO)c3)nc12 | – | – | < 5.50 | – |
| O=C(Nc1ccncc1)Nc1ccc(-c2nc(N3CCOCC3)c3ccn(CCN4CCNCC4)c3n2)cc1 | 4 | > 100 | 5.63 | – |
| CN(C)CCn1ccc2c(N3CCOCC3)nc(-c3cccc(CO)c3)nc21 | – | > 100 | 6.16 | – |

Further lines, with some results ahead:

| half-life (in vitro [1]) [min] | solubility [2] [µg/mL] | SMILES | pIC50 (PC-3) | other results |
| --- | --- | --- | --- | --- |
| 9 | > 100 | CNC(=O)Nc1ccc(-c2nc(N3CCOCC3)c3ccn(CCN(C)C)c3n2)cc1 | 6.36 | – |
| > 30 | 1 (≈ 1.8 µM) | CCn1ccc2c(N3CCOCC3)nc(-c3ccc(NC(=O)Nc4ccc(C(=O)NCCN(C)C)cc4)cc3)nc21 | 7.58 | pIC50 (MDA-MB-361): 8.26; pIC50 [3]: 8.74; half-life (in vitro [4]): > 30 min; pIC50 [5]: 9.30 |
| > 30 | – | CN(C)CCNC(=O)c1ccc(NC(=O)Nc2ccc(-c3nc(N4CCOCC4)c4ccn(CC(F)(F)F)c4n3)cc2)cc1 | 7.64 | pIC50 (MDA-MB-361): 7.99; solubility [6]: 68 µg/mL (≈ 111 µM); pIC50 [3]: 8.85; half-life (in vitro [4]): > 30 min; pIC50 [5]: 9.40 |
| 29 | – | CN(C)CCN(C)C(=O)c1ccc(NC(=O)Nc2ccc(-c3nc(N4CCOCC4)c4ccn(CC(F)(F)F)c4n3)cc2)cc1 | 7.89 | concentration at 8 h [7]: 1730 ng/mL; pIC50 (MDA-MB-361): > 8.52; solubility [6]: > 100 µg/mL; half-life (in vitro [8]): > 30 min; half-life (in vitro [4]): > 30 min; pIC50 [5]: 9.22 |
| 8 | > 100 | CCNC(=O)Nc1ccc(-c2nc(N3CCOCC3)c3ccn(CCN(C)C)c3n2)cc1 | – | – |
| 5 | 21 (≈ 43.2 µM) | CN(C)CCn1ccc2c(N3CCOCC3)nc(-c3ccc(NC(=O)Nc4ccccn4)cc3)nc21 | 6.05 | – |
| 8 | 58 (≈ 110 µM) | CN(C)CCNCCn1ccc2c(N3CCOCC3)nc(-c3ccc(NC(=O)Nc4ccncc4)cc3)nc21 | 5.94 | – |
| > 30 | 1 (≈ 2.01 µM) | O=C(Nc1ccncc1)Nc1ccc(-c2nc(N3CCOCC3)c3ccn(CC(F)(F)F)c3n2)cc1 | 7.09 | pIC50 (MDA-MB-361): 7.28 |
| 15 | – | CCn1ccc2c(N3CCOCC3)nc(-c3ccc(NC(=O)Nc4ccc(C(=O)N5CCN(C)CC5)cc4)cc3)nc21 | 7.77 | pIC50 (MDA-MB-361): 8.35; pIC50 [3]: 8.57; half-life (in vitro [4]): > 30 min; pIC50 [5]: 8.85 |
| 9 | 52 (≈ 107 µM) | CN(C)CCn1ccc2c(N3CCOCC3)nc(-c3ccc(NC(=O)Nc4cccnc4)cc3)nc21 | 6.86 | pIC50 [5]: 8.52 |
| 4 | 2 (≈ 3.97 µM) | COC(Cn1ccc2c(N3CCOCC3)nc(-c3ccc(NC(=O)Nc4ccncc4)cc3)nc21)OC | 7.14 | – |
| > 30 | 1 (≈ 1.54 µM) | CN(C)C1CCN(C(=O)c2ccc(NC(=O)Nc3ccc(-c4nc(N5CCOCC5)c5ccn(CC(F)(F)F)c5n4)cc3)cc2)CC1 | 7.35 | pIC50 (MDA-MB-361): 7.96 |
| 2 | 52 (≈ 107 µM) | CN(C)CCn1ccc2c(N3CCOCC3)nc(-c3ccc(NC(=O)Nc4ccncc4)cc3)nc21 | 7.00 | pIC50 [3]: 8.10 |
| 22 | 1 (≈ 2.18 µM) | O=C(Nc1ccncc1)Nc1ccc(-c2nc(N3CCOCC3)c3ccn(CCO)c3n2)cc1 | 7.04 | pIC50 [3]: 8.30 |
| – | 2 (≈ 4.37 µM) | O=CCn1ccc2c(N3CCOCC3)nc(-c3ccc(NC(=O)Nc4ccncc4)cc3)nc21 | 6.19 | – |
| > 30 | 1 (≈ 1.8 µM) | CCn1ccc2c(N3CCOCC3)nc(-c3ccc(NC(=O)Nc4ccc(C(=O)N5CCNCC5)cc4)cc3)nc21 | 7.57 | pIC50 (MDA-MB-361): 8.35; pIC50 [3]: 9.10; half-life (in vitro [4]): > 30 min; pIC50 [5]: 9.05 |
